Experimental findings from patent US20250236614A1, “BICYCLIC TETRAHYDROAZEPINE DERIVATIVES” (Hoffmann-La Roche Inc., priority 2022, published 2025) are described below.

pEC50: −log10 of the molar value. Where two headings read alike, the source gives them in different places. Where only a bound is given, the exact number is not on record here.

The test concerns primary human T-cells. Description: T-cell proliferation assay (CellTiter-Glo). Type of test: cell-based. To be noted: isomer A; for pEC50: CD3 antibody-stimulated T-cells, CellTiter-Glo after 5 days, read-out: Tcell Proliferation CD3 EC50; for Emax: read-out: Emax proliferation (% activation). Here is the method: Expanded primary human T-cells are thawed and cultured in RPMI 1640 (Gibco, #61870-010)+5% human serum (HS, Sigma, #H3667)+1 mM Sodium Pyruvate (Gibco, #11360-039)+50 μM 2-mercaptoethanol (Gibco, #31350-010) and 1× Pen-Strep (Life Technologies, #15140122) medium at density of 2 Mio/ml for 3 hours in 5% CO2, 37° C. and 95% humidity. For coating of plates, PBS++ only or PBS++ with CD3 antibody (concentration depending on donor and determined by CD3 titrations) is added 100 μl/well to Poly-D Lysine coated 96-well plates. Plates are sealed and incubated at room temperature for 3 hours on a table-top rocking platform. After incubation, plates are washed once with PBS−− and filled with 40 μl/well culture medium only. Compounds are then added (see next section) to medium only plates. After 3 hours of culturing the T-cells, cells are filtered through a cell strainer (Miltenyi Biotech, #130-041-407), counted again and concentration is adjusted to 1.25 Mio/ml.
Cells are then seeded 80 μl/well to the 40 μl/well including dispensed compounds according to plate layout. By adding cells, compounds are further diluted 1:3, and resulting in 100k cells/120 μl/well. After 48 hours 40 μl of supernatant is collected carefully from the top while not disturbing the cells. Cells are assessed for proliferation 5 days later by measuring […] using CellTiterGlo (Promega).
Compounds were added in a 5 or 6 pt dose response with the Tecan D300e Digital Dispenser, all conditions 3 times more concentrated than the end-concentration, since cells are added afterwards (80 μl cells to 40 μl prepared medium with treatment). The DR was starting at 20 μM or 10 μM final top concentration and a dilution factor of 3.333. The positive control was the reference compound A1 that was added in a dose response as well, additionally to 3 wells of only 20 μM representing the positive stimulator control. All wells were normalized with DMSO to a final concentration of 0.6% (0.2% end-concentration).
After 5 days, for detection of ATP which is directly proportional to the number of cells present per well, the CellTiter-Glo® 2.0 Reagent is used. After visual control for toxicity or precipitations of the tested compounds, the plates are equilibrated to room temperature for 45 minutes. CellTiter-Glo® 2.0 Reagent is equilibrated to room temperature as well. After equilibration, an equal amount of CellTiter-Glo reagent is added to the cells (80 μl/well) with an electronic multichannel pipette. Plates are placed on a rocking platform for 15 minutes at room temperature. After incubation, the bottom of the plates is sealed with backing tape. Luminescence is measured with PHERAstar FSX (interval time 0.5 sec, gain 3000, focal height 15 mm) and exported as CSV file for analysis in Genedata screener.
CD3 and PBS plates were analysed separately in Genedata Screener using Roche Normalization PCT_POS_CTRL with DMSO set as Neutral Control and 20 μM of the reference compound A1 set as Stimulator Control/100%.
For CD3 conditions EC50 and Emax of the fitted sigmoidal curve were reported. If no curve could be fitted, the EC50 was reported as blank field and the Emax was based on individual data points. […] Compounds which activate unstimulated cells (see IL2 measurements) or compounds which negatively affected viability were flagged.

The mark [1] stands for this setting: Homo sapiens, T-cell, 120 h, CD3 condition, 5 days, 20 μM reference compound A1 = 100%, DMSO neutral control.

Take `N[C@@H]1CC(F)(F)c2cc(F)c(-c3nnc(N4CCOC5(CC5)C4)o3)cc2N(Cc2ccc(-c3noc(C(F)(F)F)n3)cc2)C1=O` (single isomer, unassigned) [Example 17]: the pEC50 (Homo sapiens, T-cell, 120 h) is 6.25. The Emax under setting [1] was 115%.
The corresponding values for `COCCN1CC(c2nnc(-c3cc4c(cc3F)C(F)(F)C[C@@H](N)C(=O)N4Cc3ccc(-c4ccc(C(F)(F)F)cn4)cc3)o2)CC(F)(F)C1` (single isomer, unassigned) [Example 34] are 5.91 and 75%.
For the compound `CC(C)(c1nnc(-c2cc3c(cc2F)C(F)(F)C[C@@H](N)C(=O)N3Cc2ccc(-n3cc(C(F)(F)F)cn3)cc2)o1)S(C)(=O)=O` (single isomer, unassigned) [Example 29], under “Homo sapiens, T-cell, 120 h”, the pEC50 is 7.04. Also, the Emax under setting [1] turned out to be 93%.
On to `CC(C)(C#N)c1nnc(-c2cc3c(cc2F)C(F)(F)C[C@@H](N)C(=O)N3Cc2ccc(-c3ncc(C(F)(F)F)cc3F)cc2)o1` (single isomer, unassigned) [Example 19], for which the pEC50 (Homo sapiens, T-cell, 120 h) was 6.01. The Emax under setting [1] was found to be 85%.
The corresponding values for `COC(=O)N1CC2CC(c3nnc(-c4cc5c(cc4F)C(F)(F)CC(N)C(=O)N5Cc4ccc(-c5noc(C(F)(F)F)n5)cc4)o3)(C2)C1` (single isomer, unassigned) [Example 42] are 5.90 and 117%.
Regarding `N[C@@H]1CC(F)(F)c2cc(F)c(-c3nnc(N4CCC(F)(F)CC4)o3)cc2N(Cc2ccc(-c3noc(C(F)(F)F)n3)cc2)C1=O` (single isomer, unassigned) [Example 15], the pEC50 (Homo sapiens, T-cell, 120 h) was 6.90. Further, the Emax under setting [1] is 108%.
Taken in the same sequence, the figures for `COC(=O)N1CC2CC(c3nnc(-c4cc5c(cc4F)C(F)(F)C[C@@H](N)C(=O)N5Cc4ccc(Cl)cc4)o3)(C2)C1` (single isomer, unassigned) [Example 36] were 6.78 and 82%.
The corresponding values for `CC(C)(c1nnc(-c2cc3c(cc2F)C(F)(F)C[C@@H](N)C(=O)N3Cc2ccc(-c3ccc(OC(F)(F)F)cn3)cc2)o1)S(C)(=O)=O` (single isomer, unassigned) [Example 26] are 6.02 and 155%.
The corresponding values for `CCN1CC(c2nnc(-c3cc4c(cc3F)C(F)(F)C[C@@H](N)C(=O)N4Cc3ccc(OC(F)(F)F)cc3)o2)CC(F)(F)C1` (single isomer, unassigned) [Example 13] are 7.11 and 79%.
For `CC(C)(C#N)c1nnc(-c2cc3c(cc2F)C(F)(F)C[C@@H](N)C(=O)N3Cc2ccc(-n3nnc(C(F)(F)F)n3)cc2)o1` (single isomer, unassigned) [Example 20], the pEC50 (Homo sapiens, T-cell, 120 h) is 6.69. Besides, under setting [1], the Emax worked out at 118%.
The corresponding values for `COC(F)(c1nnc(-c2cc3c(cc2F)C(F)(F)C[C@H](N)C(=O)N3Cc2ccc(OC(F)(F)F)cc2)o1)C(F)(F)F` (single isomer, unassigned) [Example 4] are 6.86 and 112%.
Regarding `CC(C)(C)c1nnc(-c2cc3c(cc2F)C(F)(F)CC(N)C(=O)N3Cc2ccc(OC(F)(F)F)cc2)o1` (stereo not shown) [Example 1, 3-amino-8-(5-tert-butyl-1,3,4-oxadiazol-2-yl)-5,5,7-trifluoro-1-[[4-(trifluoromethoxy)phenyl]methyl]-3,4-dihydro-1-benzazepin-2-one], the pEC50 (Homo sapiens, T-cell, 120 h) was 5.59. The Emax under setting [1] came out at 74%.
On to `COc1ccc(-c2ccc(CN3C(=O)[C@H](N)CC(F)(F)c4cc(F)c(-c5nnc(C(C)(C)C#N)o5)cc43)cc2)nc1` (single isomer, unassigned) [Example 38], for which the pEC50 (Homo sapiens, T-cell, 120 h) is 5.99. The Emax under setting [1] turned out to be 105%.
Taken in the same sequence, the figures for `CC(C)(C#N)c1nnc(-c2cc3c(cc2F)C(F)(F)C[C@@H](N)C(=O)N3Cc2ccc(-c3ccc(C(F)(F)F)cc3)nc2)o1` (single isomer, unassigned) [Example 28] were 6.01 and 96%.
In the case of `CC(C)(C#N)c1nnc(-c2cc3c(cc2F)C(F)(F)C[C@@H](N)C(=O)N3Cc2ccc(-c3ccc(OC(F)(F)F)cn3)cc2)o1` (single isomer, unassigned) [Example 24], the pEC50 (Homo sapiens, T-cell, 120 h) is 6.79. Further, the Emax under setting [1] turned out to be 129%.
In the case of “(3S)-3-amino-5,5,7-trifluoro-8-(5-morpholino-1,3,4-oxadiazol-2-yl)-1-[[4-(trifluoromethoxy)phenyl]methyl]-3,4-dihydro-1-benzazepin-2-one and (3R)-3-amino-5,5,7-trifluoro-8-(5-morpholino-1,3,4-oxadiazol-2-yl)-1-[[4-(trifluoromethoxy)phenyl]methyl]-3,4-dihydro-1-benzazepin-2-one [Example 3]”, the pEC50 is 6.26. Where the note is “CD3 condition, 5 days, 20 μM reference compound A1 = 100%, DMSO neutral control”, the “Emax proliferation (% activation)” value is 57 % activation.
On to `CC(C)(c1nnc(-c2cc3c(cc2F)C(F)(F)C[C@@H](N)C(=O)N3Cc2ccc(-c3ccc(C(F)(F)F)cn3)cc2)o1)S(C)(=O)=O` (single isomer, unassigned) [Example 8], for which the pEC50 (Homo sapiens, T-cell, 120 h) is 6.73. Further, the Emax under setting [1] worked out at 86%.
The corresponding values for `N[C@@H]1CC(F)(F)c2cc(F)c(-c3nnc(N4CCCC4)o3)cc2N(Cc2ccc(-n3cnc(C(F)(F)F)n3)cc2)C1=O` (single isomer, unassigned) [Example 21] are less than 5.00 and 43%.
Taken in the same sequence, the figures for `N[C@@H]1CC(F)(F)c2cc(F)c(-c3nnc(N4CCC(F)(F)C4)o3)cc2N(Cc2ccc(-n3cnc(C(F)(F)F)n3)cc2)C1=O` (single isomer, unassigned) [Example 22] were 5.68 and 62%.
In the case of `CC(C)(C#N)c1nnc(-c2cc3c(cc2F)C(F)(F)C[C@@H](N)C(=O)N3Cc2ccc(-c3ccc(C(F)F)cn3)cc2)o1` (single isomer, unassigned) [Example 40], the pEC50 (Homo sapiens, T-cell, 120 h) was 6.18. The Emax under setting [1] amounted to 99%.
The corresponding values for `CC(C)(C#N)c1nnc(-c2cc3c(cc2F)C(F)(F)C[C@@H](N)C(=O)N3Cc2ccc(-c3cc(C(F)(F)F)ccn3)cc2)o1` (single isomer, unassigned) [Example 27] are 6.22 and 79%.
In the case of `CC(C)(C#N)c1nnc(-c2cc3c(cc2F)C(F)(F)C[C@@H](N)C(=O)N3Cc2ccc(-n3ccc(C(F)(F)F)n3)cc2)o1` (single isomer, unassigned) [Example 30], the pEC50 (Homo sapiens, T-cell, 120 h) is 6.23. The Emax under setting [1] was 94%.
Taken in the same sequence, the figures for `N[C@@H]1CC(F)(F)c2cc(F)c(-c3nnc(N4CCCC4)o3)cc2N(Cc2ccc(-c3noc(C(F)(F)F)n3)cc2)C1=O` (single isomer, unassigned) [Example 14] were 6.23 and 149%.
The corresponding values for `COC(=O)N1CC2CC(c3nnc(-c4cc5c(cc4F)C(F)(F)C[C@@H](N)C(=O)N5Cc4ccc(-c5ccc(C(F)(F)F)cn5)cc4)o3)(C2)C1` (single isomer, unassigned) [Example 35] are 6.91 and 128%.
For the compound `CC(C)(c1nnc(-c2cc3c(cc2F)C(F)(F)C[C@@H](N)C(=O)N3Cc2ccc(-c3ccc(C(F)(F)F)cc3)cc2)o1)S(C)(=O)=O` (single isomer, unassigned) [Example 32], the pEC50 (Homo sapiens, T-cell, 120 h) is 5.63. The Emax under setting [1] was found to be 81%.
As for `CC(C)(c1nnc(-c2cc3c(cc2F)C(F)(F)C[C@@H](N)C(=O)N3Cc2ccc(-c3noc(C(F)(F)F)n3)cc2)o1)S(C)(=O)=O` (single isomer, unassigned) [Example 16], where the note is “Homo sapiens, T-cell, 120 h”, the pEC50 is 6.53. For the same compound, the Emax under setting [1] was 241%.
